The values that follow are results of earlier work, collected in article PMC9851200, “Multiparameter phenotypic screening for endogenous TFEB and TFE3 translocation identifies novel chemical series modulating lysosome function” (Autophagy, 2022).

Holding throughout (parameters): method as in original PKIS2 published data
Data set [1] addresses T1, kinases (KINOMEscan panel) (Homo sapiens, UniProt O75747).
T1 sequence (O75747 1-1486): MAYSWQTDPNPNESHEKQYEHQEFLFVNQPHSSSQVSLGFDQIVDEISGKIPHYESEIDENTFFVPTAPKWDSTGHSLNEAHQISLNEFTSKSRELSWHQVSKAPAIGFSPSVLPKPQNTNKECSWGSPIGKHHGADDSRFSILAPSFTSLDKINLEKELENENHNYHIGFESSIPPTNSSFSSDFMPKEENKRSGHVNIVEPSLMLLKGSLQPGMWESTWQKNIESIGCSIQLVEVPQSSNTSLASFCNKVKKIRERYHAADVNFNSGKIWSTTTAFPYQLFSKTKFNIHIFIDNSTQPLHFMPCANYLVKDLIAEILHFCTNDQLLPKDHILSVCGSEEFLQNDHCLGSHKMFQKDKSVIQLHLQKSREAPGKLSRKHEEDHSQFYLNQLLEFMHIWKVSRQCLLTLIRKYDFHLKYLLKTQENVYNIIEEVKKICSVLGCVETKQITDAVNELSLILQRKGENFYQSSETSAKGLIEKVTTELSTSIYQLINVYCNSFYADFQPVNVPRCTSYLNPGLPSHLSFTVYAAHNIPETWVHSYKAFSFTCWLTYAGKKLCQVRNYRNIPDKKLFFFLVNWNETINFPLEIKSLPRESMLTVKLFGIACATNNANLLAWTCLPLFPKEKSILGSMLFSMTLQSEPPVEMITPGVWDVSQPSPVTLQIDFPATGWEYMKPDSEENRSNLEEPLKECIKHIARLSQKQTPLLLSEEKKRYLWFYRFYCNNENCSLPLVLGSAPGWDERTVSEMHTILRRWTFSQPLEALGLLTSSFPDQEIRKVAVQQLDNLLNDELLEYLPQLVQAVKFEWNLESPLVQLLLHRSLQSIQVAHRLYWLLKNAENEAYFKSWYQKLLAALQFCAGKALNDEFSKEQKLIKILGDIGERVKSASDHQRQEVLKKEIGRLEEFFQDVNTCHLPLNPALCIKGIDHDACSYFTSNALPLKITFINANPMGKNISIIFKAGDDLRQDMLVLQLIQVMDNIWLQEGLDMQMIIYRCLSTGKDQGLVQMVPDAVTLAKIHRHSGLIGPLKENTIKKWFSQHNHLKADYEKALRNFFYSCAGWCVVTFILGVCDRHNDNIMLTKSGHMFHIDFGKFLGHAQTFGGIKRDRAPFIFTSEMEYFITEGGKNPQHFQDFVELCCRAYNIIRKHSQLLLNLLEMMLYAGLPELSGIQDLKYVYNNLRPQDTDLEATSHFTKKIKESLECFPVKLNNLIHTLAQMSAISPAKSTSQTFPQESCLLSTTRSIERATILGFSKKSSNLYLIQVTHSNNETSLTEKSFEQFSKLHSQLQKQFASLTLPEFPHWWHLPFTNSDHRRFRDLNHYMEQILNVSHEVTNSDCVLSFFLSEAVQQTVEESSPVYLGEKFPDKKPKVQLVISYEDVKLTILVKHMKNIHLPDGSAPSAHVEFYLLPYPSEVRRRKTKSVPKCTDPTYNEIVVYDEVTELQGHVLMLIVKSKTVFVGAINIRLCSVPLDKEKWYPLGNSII
To be noted: Published KINOMEscan; ref original PKIS2 published data; cited from earlier work.

Data set [2] concerns the target kinases (KINOMEscan panel) (Homo sapiens, UniProt P06213). To be noted: kinase INSR; Published KINOMEscan; ref original PKIS2 published data; cited from earlier work.
Data set [3] deals with T2, kinases (KINOMEscan panel) (Homo sapiens, UniProt P54760).
T2 sequence (P54760 16-987): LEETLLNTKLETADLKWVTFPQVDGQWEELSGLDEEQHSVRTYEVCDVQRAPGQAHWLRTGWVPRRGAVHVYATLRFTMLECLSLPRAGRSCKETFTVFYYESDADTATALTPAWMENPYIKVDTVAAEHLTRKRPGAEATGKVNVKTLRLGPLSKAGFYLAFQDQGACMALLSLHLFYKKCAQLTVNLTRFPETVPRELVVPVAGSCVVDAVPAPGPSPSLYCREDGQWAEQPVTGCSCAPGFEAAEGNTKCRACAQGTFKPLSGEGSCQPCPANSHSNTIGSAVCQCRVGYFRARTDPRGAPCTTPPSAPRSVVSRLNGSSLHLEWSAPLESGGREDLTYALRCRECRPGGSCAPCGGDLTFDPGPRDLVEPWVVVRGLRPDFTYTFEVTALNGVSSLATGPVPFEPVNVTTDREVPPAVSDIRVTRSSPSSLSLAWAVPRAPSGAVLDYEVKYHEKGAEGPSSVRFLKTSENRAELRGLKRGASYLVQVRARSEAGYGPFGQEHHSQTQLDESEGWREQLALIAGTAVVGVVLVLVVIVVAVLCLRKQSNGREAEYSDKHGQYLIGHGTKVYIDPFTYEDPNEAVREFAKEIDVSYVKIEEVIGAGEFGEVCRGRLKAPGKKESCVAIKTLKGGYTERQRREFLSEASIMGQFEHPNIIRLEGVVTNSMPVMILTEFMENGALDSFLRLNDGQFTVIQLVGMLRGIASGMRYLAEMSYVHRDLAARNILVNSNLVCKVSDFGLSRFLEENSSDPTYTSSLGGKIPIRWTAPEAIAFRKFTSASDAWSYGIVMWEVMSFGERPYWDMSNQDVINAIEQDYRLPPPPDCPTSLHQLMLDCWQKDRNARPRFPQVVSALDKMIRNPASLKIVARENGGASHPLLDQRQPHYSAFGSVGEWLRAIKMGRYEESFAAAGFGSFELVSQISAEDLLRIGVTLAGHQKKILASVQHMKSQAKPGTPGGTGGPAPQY
To be noted: EPHB4; Published KINOMEscan; ref original PKIS2 published data; cited from earlier work.

Data set [4] deals with kinases (KINOMEscan panel) (Homo sapiens, UniProt Q07002). Conditions: kinase CDK18; Published KINOMEscan; ref original PKIS2 published data; cited from earlier work.
Chain of kinases (KINOMEscan panel) (Homo sapiens, UniProt Q07002) (Q07002 whole entry): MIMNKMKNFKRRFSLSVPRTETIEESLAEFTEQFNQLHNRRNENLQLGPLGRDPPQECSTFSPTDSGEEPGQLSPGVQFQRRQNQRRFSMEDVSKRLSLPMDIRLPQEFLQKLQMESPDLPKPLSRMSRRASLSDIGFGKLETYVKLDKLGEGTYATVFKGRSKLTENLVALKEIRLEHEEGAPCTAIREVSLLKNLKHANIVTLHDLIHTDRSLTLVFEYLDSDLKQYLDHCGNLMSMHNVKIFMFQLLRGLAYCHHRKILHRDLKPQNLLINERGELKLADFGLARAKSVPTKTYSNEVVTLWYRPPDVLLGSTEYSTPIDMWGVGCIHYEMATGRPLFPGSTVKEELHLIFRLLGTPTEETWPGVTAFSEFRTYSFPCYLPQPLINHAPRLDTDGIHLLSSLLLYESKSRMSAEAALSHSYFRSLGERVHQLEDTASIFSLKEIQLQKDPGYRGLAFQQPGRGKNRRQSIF
Data set [5] addresses kinases (KINOMEscan panel) (Homo sapiens, UniProt Q8NEV4). Conditions: kinase MYO3A; Published KINOMEscan; ref original PKIS2 published data; cited from earlier work.
Data set [6] addresses kinases (KINOMEscan panel) (Homo sapiens, UniProt Q9HBH9). To be noted: MKNK2; Published KINOMEscan; ref original PKIS2 published data; cited from earlier work.

Chain of kinases (KINOMEscan panel) (Homo sapiens, UniProt P06213) (P06213 28-1382): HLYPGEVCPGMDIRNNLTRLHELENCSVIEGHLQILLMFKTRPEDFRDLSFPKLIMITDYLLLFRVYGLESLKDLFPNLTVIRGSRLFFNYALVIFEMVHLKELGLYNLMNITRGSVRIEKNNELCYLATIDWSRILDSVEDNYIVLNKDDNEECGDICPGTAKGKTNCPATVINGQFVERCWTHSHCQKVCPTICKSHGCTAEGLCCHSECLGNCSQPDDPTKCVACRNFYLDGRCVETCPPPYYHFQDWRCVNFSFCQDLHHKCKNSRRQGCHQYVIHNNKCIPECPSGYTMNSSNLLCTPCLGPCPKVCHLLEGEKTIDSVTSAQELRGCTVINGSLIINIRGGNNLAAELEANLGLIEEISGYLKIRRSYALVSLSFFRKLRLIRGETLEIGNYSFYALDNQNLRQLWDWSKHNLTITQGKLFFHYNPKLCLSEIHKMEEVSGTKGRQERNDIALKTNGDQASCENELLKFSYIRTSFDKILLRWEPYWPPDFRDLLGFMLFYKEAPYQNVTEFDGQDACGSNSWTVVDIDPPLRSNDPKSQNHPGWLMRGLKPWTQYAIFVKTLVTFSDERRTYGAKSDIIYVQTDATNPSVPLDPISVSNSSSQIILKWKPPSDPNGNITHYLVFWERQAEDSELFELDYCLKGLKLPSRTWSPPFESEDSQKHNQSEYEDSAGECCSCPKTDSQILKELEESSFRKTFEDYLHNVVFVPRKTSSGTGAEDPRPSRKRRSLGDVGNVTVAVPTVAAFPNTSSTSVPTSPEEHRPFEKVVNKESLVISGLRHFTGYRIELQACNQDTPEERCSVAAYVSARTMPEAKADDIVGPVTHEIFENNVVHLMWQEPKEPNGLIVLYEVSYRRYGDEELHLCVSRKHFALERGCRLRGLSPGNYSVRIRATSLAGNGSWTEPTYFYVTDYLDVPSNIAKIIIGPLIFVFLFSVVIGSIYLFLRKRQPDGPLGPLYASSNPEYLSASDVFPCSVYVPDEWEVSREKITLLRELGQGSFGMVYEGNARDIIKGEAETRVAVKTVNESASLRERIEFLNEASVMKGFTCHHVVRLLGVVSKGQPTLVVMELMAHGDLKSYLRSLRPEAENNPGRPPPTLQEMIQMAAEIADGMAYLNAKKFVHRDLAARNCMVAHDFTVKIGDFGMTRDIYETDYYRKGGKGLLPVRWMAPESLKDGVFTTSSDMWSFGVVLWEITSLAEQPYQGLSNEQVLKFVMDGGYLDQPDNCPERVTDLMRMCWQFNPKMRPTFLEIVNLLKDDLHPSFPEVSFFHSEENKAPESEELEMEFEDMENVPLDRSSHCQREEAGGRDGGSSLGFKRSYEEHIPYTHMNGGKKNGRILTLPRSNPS
Chain of kinases (KINOMEscan panel) (Homo sapiens, UniProt Q8NEV4) (Q8NEV4 whole entry): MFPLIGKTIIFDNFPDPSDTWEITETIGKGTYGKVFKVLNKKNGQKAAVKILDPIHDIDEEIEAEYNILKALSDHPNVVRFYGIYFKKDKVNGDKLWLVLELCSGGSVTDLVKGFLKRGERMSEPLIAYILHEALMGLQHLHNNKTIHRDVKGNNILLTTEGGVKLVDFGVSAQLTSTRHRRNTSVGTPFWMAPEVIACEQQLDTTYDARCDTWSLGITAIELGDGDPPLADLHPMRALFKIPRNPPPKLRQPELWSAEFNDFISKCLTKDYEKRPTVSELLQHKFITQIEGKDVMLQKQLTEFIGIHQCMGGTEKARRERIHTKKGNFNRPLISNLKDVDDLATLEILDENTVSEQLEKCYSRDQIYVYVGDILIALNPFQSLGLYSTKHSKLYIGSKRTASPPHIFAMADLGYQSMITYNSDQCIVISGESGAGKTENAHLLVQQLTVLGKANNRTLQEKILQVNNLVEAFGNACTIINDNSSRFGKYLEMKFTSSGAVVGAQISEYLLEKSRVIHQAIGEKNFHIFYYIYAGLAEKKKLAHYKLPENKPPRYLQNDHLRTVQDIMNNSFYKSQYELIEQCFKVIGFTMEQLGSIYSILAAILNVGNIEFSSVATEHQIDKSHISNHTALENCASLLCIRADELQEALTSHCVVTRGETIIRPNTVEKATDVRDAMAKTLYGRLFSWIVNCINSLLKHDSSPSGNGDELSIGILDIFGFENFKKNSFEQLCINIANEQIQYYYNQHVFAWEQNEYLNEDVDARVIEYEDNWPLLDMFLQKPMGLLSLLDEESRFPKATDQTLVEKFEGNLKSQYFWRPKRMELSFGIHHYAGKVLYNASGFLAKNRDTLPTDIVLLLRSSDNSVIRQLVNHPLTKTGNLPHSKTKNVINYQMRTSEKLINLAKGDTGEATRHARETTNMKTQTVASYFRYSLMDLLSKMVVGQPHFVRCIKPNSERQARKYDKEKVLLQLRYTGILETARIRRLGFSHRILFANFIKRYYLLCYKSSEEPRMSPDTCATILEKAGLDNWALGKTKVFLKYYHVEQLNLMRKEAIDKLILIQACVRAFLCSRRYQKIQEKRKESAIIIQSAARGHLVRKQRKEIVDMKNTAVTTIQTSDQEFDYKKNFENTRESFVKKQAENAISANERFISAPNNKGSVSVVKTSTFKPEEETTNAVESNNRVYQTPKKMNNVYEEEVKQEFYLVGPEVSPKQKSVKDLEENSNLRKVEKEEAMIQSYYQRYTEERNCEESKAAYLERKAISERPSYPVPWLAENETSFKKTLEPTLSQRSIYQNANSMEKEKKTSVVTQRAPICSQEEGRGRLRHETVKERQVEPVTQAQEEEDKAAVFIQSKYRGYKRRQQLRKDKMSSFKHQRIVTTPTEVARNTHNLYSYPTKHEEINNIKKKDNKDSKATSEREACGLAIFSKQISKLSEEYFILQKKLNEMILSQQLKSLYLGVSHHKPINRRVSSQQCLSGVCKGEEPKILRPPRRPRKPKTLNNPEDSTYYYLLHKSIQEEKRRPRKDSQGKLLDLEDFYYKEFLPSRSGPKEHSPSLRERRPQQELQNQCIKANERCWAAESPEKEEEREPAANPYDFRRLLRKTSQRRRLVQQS
Chain of kinases (KINOMEscan panel) (Homo sapiens, UniProt Q9HBH9) (Q9HBH9 whole entry): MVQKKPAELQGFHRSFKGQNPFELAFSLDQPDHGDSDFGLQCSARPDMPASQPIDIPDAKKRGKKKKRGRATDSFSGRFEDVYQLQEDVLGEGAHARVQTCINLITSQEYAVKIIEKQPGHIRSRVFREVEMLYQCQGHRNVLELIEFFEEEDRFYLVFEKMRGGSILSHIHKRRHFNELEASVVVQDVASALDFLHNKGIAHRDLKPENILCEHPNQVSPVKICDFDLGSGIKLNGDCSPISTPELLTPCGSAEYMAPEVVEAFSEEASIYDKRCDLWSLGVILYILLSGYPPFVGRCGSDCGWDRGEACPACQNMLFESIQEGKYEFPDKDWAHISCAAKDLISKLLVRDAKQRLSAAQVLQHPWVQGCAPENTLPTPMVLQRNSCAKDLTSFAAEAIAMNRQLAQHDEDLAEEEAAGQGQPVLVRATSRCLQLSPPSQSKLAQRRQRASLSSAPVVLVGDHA

`Cc1cccc(-c2nc(Nc3ccncc3)c3ccccc3n2)n1` [NK215]: in data set [1], the “KINOMEscan PIK3C2G” value is 0. For the same compound, in data set [2], the “KINOMEscan INSR” value was 7. The “KINOMEscan EPHB4” value in data set [3] is on record as 26. For the same compound, the “KINOMEscan CDK18” value in data set [4] is given as 0. Also, the “KINOMEscan MYO3A” value in data set [5] was 0. For the same compound, in data set [6], the “KINOMEscan MKNK2” value was 0.
